These results are taken from patent US20220312768A1, “COMBINATIONS OF AGROCHEMICALS WITH METABOLIC INHIBITORS” (THE BOARD OF TRUSTEES OF THE UNIVERSITY OF ARKANSAS, priority 2021, published 2022).

The test system of assay [1] is Palmer amaranth. Further details: species or system Amaranthus palmeri. The conditions noted are these: in vivo.
Assay [2] has as its system Palmer amaranth. As to the kind of experiment: Greenhouse experiment, GST blockers added to KFD-581-01, Palmer amaranth control and biomass reduction. It counts as in vivo, Amaranthus palmi. The note with it: for Palmer amaranth control, relative effectiveness of treatments: 7 DAA; for Palmer amaranth control versus KFD-581-01 applied alone / Reduction in above-ground biomass compared to the untreated check: 14 DAA, higher rates + KFD-581-01 300 g ai/ha.

Setting [3] is: all rates (17, 34, 67 g ai/ha) + KFD-581-01 300 g ai/ha.

Where “and” joins values, the source holds several entries; their conditions need not be identical. Identical values can stand only once. Entries after “also recorded” stand apart in the source; their conditions may differ.

For the compound `CP(=O)(O)CCC(N)C(=O)O` (centres unmarked) [Glufosinate, 2-amino-4-[hydroxy(methyl)phosphoryl]butanoic acid], the “Palmer amaranth control (%)” value in assay [1] was 74% and 60% and 74b % and 60c %.
In the case of `O=C(O)[C@H]1O[C@@H](Oc2cc3oc(-c4ccccc4)cc(=O)c3c(O)c2O)[C@H](O)[C@@H](O)[C@@H]1O` [baicalin], in assay [2] (two highest rates (34 and 67 g ai/ha) + KFD-581-01 300 g ai/ha), the “Palmer amaranth control, relative effectiveness of treatments” value is listed as “most effective; also recorded: more effective than any rate of curcumin or NBD-CL”. Moreover, the “Palmer amaranth control versus KFD-581-01 applied alone” value in assay [2] is “increased levels of Palmer amaranth control”.
As for `O=C(O)/C=C/c1ccc(O)c(O)c1` [caffeic acid], in assay [2] (setting [3]), the “Palmer amaranth control, relative effectiveness of treatments” value is “most effective; also recorded: more effective than any rate of curcumin or NBD-CL”. The “Palmer amaranth control versus KFD-581-01 applied alone” value in assay [2] was “increased levels of Palmer amaranth control”. Moreover, the “Efficacy at the highest rate versus low or mid rates” value in assay [2] (67 g ai/ha versus 17 or 34 g ai/ha, + KFD-581-01 300 g ai/ha) is reported as “decreased efficacy at the highest rate”.
For `O=c1oc2c(O)c(O)cc3c(=O)oc4c(O)c(O)cc1c4c23` [ellagic acid], in assay [2] (setting [3]), the “Palmer amaranth control, relative effectiveness of treatments” value is recorded as “most effective; also recorded: more effective than any rate of curcumin or NBD-CL”. In assay [2], the “Palmer amaranth control versus KFD-581-01 applied alone” value was “increased levels of Palmer amaranth control” and the “Reduction in above-ground biomass compared to the untreated check” value is “largest reductions in biomass”.
In the case of `O=c1c(O)c(-c2ccc(O)c(O)c2)oc2cc(O)cc(O)c12` [quercetin], in assay [2] (setting [3]), the “Palmer amaranth control, relative effectiveness of treatments” value is recorded as “most effective; also recorded: more effective than any rate of curcumin or NBD-CL”. In assay [2], the “Reduction in above-ground biomass compared to the untreated check” value is “largest reductions in biomass”.
